Data: patent US12268901B2, “Targeting cell tropism receptors to inhibit cytomegalovirus infection” (priority 2017, dated 2025)

Test system: TB40E-GFP virus binding to ARPE19 cells
Assay: Peptide blocking assay, cell-binding virus assay (viral DNA by qPCR)
Format: cell-based, Human cytomegalovirus (HCMV)
Details: different amounts of Peptide 1 preincubated with virus at 37° C. for 2 h, applied to ARPE19 cells at 4° C. for 2 h
Method: The shPDGFRA, shOR14I1 and shDMBT1 transduced ARPE19 cells were chilled on ice for 20 min and then incubated with chilled TB40E-GFP at the indicated MOT on ice for 1 h. The cells were then washed ten times with cold PBS. Cellular DNA and cell-associated viral DNA were isolated using a DNeasy Blood & Tissue Kit (Qiagen). Viral DNA (UL83) and host DNA ((β-ACTIN) was quantified by real-time quantitative PCR as described (E et al., J Virol 88, 2279-2290 (2014)).
DNA was isolated from infected ARPE cells using the Dneasy Blood and Tissue DNA mini kit (Qiagen) according to the manufacturer's instructions. Viral genomes were quantified with a primer pair (pp549s and pp812as) and a probe (pp770s) for UL83 (3), and the number of viral genomes normalized to the number of cellular copies of β-ACTIN with a previously described set of primers and probe (4). Unknown sample values were determined on the basis of a standard curve of known copy numbers of UL83 (AD169-BAC) and β-ACTIN (pAB1-bactin-PCRscript) (kind gifts from Donald Coen, Harvard Medical School). […] Real-time PCR was performed and analyzed by using a ViiA7 Real-Time PCR System (Applied Biosystems). […]
Viral binding to ARPE19 cells was evaluated in the presence of Sf9-OR14I1 membrane particles. […] After washing with cold PBS, viral DNA levels were quantified by qPCR. […] After cold PBS washing, viral DNA levels were quantified by qPCR. […]

MDNLTKVTEFLLMEFSGIWELQVLHA (N-terminal fragment of OR14I1) [Peptide 1, synthetic peptide representing the N-terminus of OR14I1, position 1-26]
TB40E-GFP virus binding to ARPE19 cells (viral DNA by qPCR): sufficient to prevent for TB40E-GFP virus binding ARPE19 cells
